Measurements from patent publication US20070196514A1, “Prostate cancer treatment with glycogen synthase kinase-3beta inhibitors” (priority 2006, published 2007).

Assays:
AR-null PC-3 cells = settings: Mazor 2004; cited from earlier work
PC-3 cells [1] = test: cell cycle analysis by flow cytometry (PI); assay type: cell-based, human; settings: 12 hours treatment
Method: (§1) For cell cycle analysis, serum-starved cells were left untreated or treated with different inhibitors for various time periods as indicated in the figures. After trypsinization, the cells were fixed and stained with propidium iodide (“PI”). Cell cycle distribution of PI-labeled cells was analyzed on a fluorescence activated cell sorter (Model EPICS XL-MCL, Beckman-Coulter Co., Fullerton, Calif.) as described previously (Miyake 2001).
(§2) The effect of GSK-3β SB216763 on cell cycle distribution in AR-null PC-3 and androgen-insensitive C4-2 cell lines were also examined.

C4-2 cells [2] = test: cell cycle analysis by flow cytometry (PI); assay type: cell-based, human; settings: 12 hours treatment
Method: as §1, §2

LNCaP-BclxL xenografts = test: LNCaP-BclxL xenograft model; assay type: in vivo, castrated nude mice
Method: All animal studies were conducted under an approved Institutional Animal Care and Use Committee protocol. Single cell suspensions (2×10^6 cells in 0.1 ml of RPMI1640 medium plus 10% FBS) were inoculated subcutaneously (s.c.) into the rear flanks (two sites/mouse) of 6 to 7 weeks old male nude mice (Charles River, Wilmington, Mass.). For protocol A, mice were randomly divided into two groups (5 animals each). On next day after inoculation, one group of animals received i.p. injection of LiCl at a daily dose of 2 mg/kg body weight. LiCl was dissolved in PBS. The control groups of animals received PBS alone in the same volume. Xenograft development and growth were monitored for 8 weeks. The tumor dimensions were measured twice a week. The tumor volume was calculated by the formula of L×W×H×0.5236 (Miyake 2001). At the end of treatment, xenograft tumors were extirpated, and the final tumor size and weight, as well as animal weight were measured. For protocol B, treatment began until tumor became palpable or 50 mm^3 in size, and LiCl or PBS was injected (5 animals each group) as above for a two-week course. Tumor size and weight were measured at the end of treatment. For BrdU in vivo labeling, the animals were injected i.p. with 0.5 ml of a 10-mM BrdU solution (Invitrogen) 2 hours before sacrifice. For experiments involving LNCaP-BclxL SB216763 subline cells (Liao 2005) were inoculated as above, and SB216763 treatment was started two weeks later when palpable xenografts were established. The SB216763 for animal use was purchased from Biomol (Plymouth Meeting, Pa.) and dissolved in a formula containing 50% N,N-dimethylacetamide (“DMA”), 45% polyethylene glycol 400 (“PEG-400”) and 5% Tween-80. SB216763 (2 mg/kilogram/bodyweight) or the solvent in 20 μl volume was injected i.p. three times a week. Tumor growth was monitored as discussed herein. […]

LNCaP cells [3] = test: MTT cell growth assay; assay type: cell-based, human; settings: three days; for cell growth (MTT): increasing doses in full culture medium, dose-responsive; for cell growth inhibition (MTT): equimolecular concentrations of LiCl, NaCl, KCl
Method: (§3) For MTT-based cell growth assays, cells seeded in 96-well plates were serum-starved for 48 hours, and were then treated with vehicle or different reagents for different time periods as indicated in the figures. MTT assay were carried out using a pre-assembled kit (Sigma) according to the manufacturer's manual.
(§4) To rule out the eventual intervention of the chloride anion and the osmotic disturbance, the effect of LiCl was compared with sodium chloride (“NaCl”) and potassium chloride (“KCl”) at equimolecular concentrations in both LNCaP and PC-3 cell lines. In addition, the androgen-insensitive C4-2 cell line was included. To easily handle the experiments while multiple comparisons were taken in place, a MTT assay was used to assess cell growth.
Lastly, two GSK-3β-specific small chemical inhibitors, SB216763 and BIO, were used to verify that LiCl-induced suppression of cell growth is due to GSK-3β inhibition. LNCaP cells were seeded as above and then treated with increasing doses of the inhibitors in a full culture medium. Cell growth was assessed three days later by MTT assay.

PC-3 cells [4] = test: MTT cell growth assay; assay type: cell-based, human; settings: equimolecular concentrations of LiCl, NaCl, KCl, three days
Method: as §3, §4

C4-2 cells [5] = test: MTT cell growth assay; assay type: cell-based, human; settings: equimolecular concentrations of LiCl, NaCl, KCl, three days
Method: as §3, §4

[6] = humans; cited from earlier work
[7] = estimated serum lithium level in mice; assay type: in vivo; settings: about 2 mg/kg of body weight, estimated (Moore 2002)
Excerpt: Based on these preliminary results, therapeutically effective dosage levels include those substantially below those used for treatment of bipolar disorders with lithium in humans, which are reported to result in a serum level between about 0.2 and 1.5 mEq/L (Noble 2005), and is usually over 0.8 mEq/L.

LNCaP cells [8] = test: Western blot of cell cycle-related proteins; assay type: cell-based, human; settings: BIO at different doses for 24 hours
Method: Western blot was carried out as described previously (Liao 2004, Liao 2003, and Liao 2005). Briefly, cells were pellets and lysed in radio-immunoprecipitation assay (“RIPA”) buffer containing protease inhibitors (Half™ Protease Inhibitor Cocktail Kit, PIERCE, Rockford, Ill.). Proteins were separated on SDS-PAGE gels and transferred to Immuno-Blot™ PVDF membrane (BIO-RAD, Hercules, Calif.). Membranes were blocked in a tris-buffered solution plus Tween 20 (“TBST”) solution with 5% nonfat dry milk and incubated with primary antibodies overnight at 4° C. Immunoreactive signals were detected by horseradish peroxidase-conjugated secondary antibodies (Santa Cruz Biotech., Santa Cruz, Calif.) followed by SuperSingnal® WestFeml® Maximum Sensitivity Substrate (PIERCE).
To verify those alterations at a protein level, two series experiments were conducted using Western blot technique. The first involved a time-course experiment. After serum starvation, LNCaP cells were left untreated or treated as before with LiCl for up to 24 hours. Cells were harvested at 18-24 hours.
Next, a dose-response experiment was performed. Following serum starvation for 24 hours, LNCaP cells were treated with BIO at different doses for another 24 hours. Control cells received the vehicle as treatment.

Compound: Cn1cc(C2=C(c3ccc(Cl)cc3Cl)C(=O)NC2=O)c2ccccc21 [SB216763, 3-(2,4-Dichlorophenyl)-4-(1-methyl-1H-indol-3yl)-1H-pyrrole-2,5-dione]
- growth of AR-null PC-3 cells (AR-null PC-3 cells): did not affect growth
- cell cycle distribution (S-phase arrest) (PC-3 cells [1]): arrested these cells in S-phase
- cell cycle distribution (S-phase arrest) (C4-2 cells [2]): arrested these cells in S-phase
- side effects (LNCaP-BclxL xenografts; SB216763 2 mg/kg i.p.): No side effects
- tumor growth vs control animals (LNCaP-BclxL xenografts; SB216763 2 mg/kg i.p. every two days, palpable tumors): largely suppressed
- treatment duration after which difference in tumor volume became significant (LNCaP-BclxL xenografts; SB216763 2 mg/kg i.p. vs vehicle): 5 week
- cell growth (MTT) (LNCaP cells [3]): significantly suppressed

Compound: [Cl-].[K+] [KCl, potassium chloride]
- cell growth inhibition (MTT) (PC-3 cells [4]): did not cause any significant inhibition
- cell growth inhibition (MTT) (C4-2 cells [5]): did not cause any significant inhibition
- cell growth inhibition (MTT) (LNCaP cells [3]): did not cause any significant inhibition

Compound: [Li] [lithium]
- usual serum level at dosages used for treatment of bipolar disorders [6]: over 0.8 mEq/L
- serum level [7]: about 0.02 mEq/L

Compound: [Cl-].[Na+] [NaCl, sodium chloride]
- cell growth inhibition (MTT) (PC-3 cells [4]): did not cause any significant inhibition
- cell growth inhibition (MTT) (C4-2 cells [5]): did not cause any significant inhibition
- cell growth inhibition (MTT) (LNCaP cells [3]): did not cause any significant inhibition

Compound: O=C1Nc2cc(Br)ccc2/C1=C1/Nc2ccccc2/C1=N\O [BIO, 6-bromoindirubin-3′-oxime]
- p21CIP1 protein expression (Western blot) (LNCaP cells [8]): increased dramatically
- protein levels of cyclins A and E, cdc6 and cdc25C (Western blot) (LNCaP cells [8]; dose-dependent): significantly reduced
- cell growth (MTT) (LNCaP cells [3]): significantly suppressed
